target: T1, human IGF-IR (Homo sapiens, UniProt P08069); experiment: cellular "Capture ELISA" test for activity against IGF-I induced IGF-IR autophosphorylation; format: cell-based; details: IGF-I (10 ng/ml) induced IGF-IR autophosphorylation in NIH-3T3 mouse fibroblasts transfected with human IGF-IR (NWT-21 cell line); 90 min compound incubation
T1 construct: complete human IGF-IR cDNA: GenBank Acc; No. NM_000875; expressed in transfected cells; host or cells: NIH-3T3 mouse fibroblasts (NWT-21 cell line), prepared as in Kato et al., J. Biol. Chem. 268, 2655-61, 1993
Procedure: In this assay the activity of the compounds of the invention against Insulin-like growth factor I (IGF-I) induced autophosphorylation of the IGF-IR is determined. The assay is conducted as follows:
The cells which overexpress human IGF-IR are cultured in Dulbecco's minimal essential (DMEM) medium, containing 10% Fetal Calf Serum (FCS). […] On day 3 the medium is discarded and the cells are incubated for 24 h in minimal medium (DMEM, containing 0.5% FCS).
The plates are washed twice with 0.05% (v/v) Tween-20 in Phosphate-Buffered Saline (PBS) and once with nanopure H2O. […] After blocking, the plates are washed once with nanopure H2O.
After incubating the extracts and the secondary antibody for 2 h at 4° C., the extracts are discarded, the plates are washed twice with 0.05% (v/v) Tween-20 in PBS and once with nanopure water.
90 μl/well AP substrate (CDP-Star; obtained from Tropix; Cat. No.: MS100RY) are then added and the plates are incubated for 45 min at RT in the dark, followed by measuring AP activity in a Packard Top Count Microplate Scintillation Counter. The IC50 values for the compounds of formula I are calculated via linear regression analysis using the GraphPad In-stat program (GraphPad Software, USA).
Test for activity against IGF-I induced IGF-IR autophosphorylation using the cellular “Capture ELISA” test
The cellular “Capture ELISA” test is carried out as described above.

T1 sequence (P08069 31-1367): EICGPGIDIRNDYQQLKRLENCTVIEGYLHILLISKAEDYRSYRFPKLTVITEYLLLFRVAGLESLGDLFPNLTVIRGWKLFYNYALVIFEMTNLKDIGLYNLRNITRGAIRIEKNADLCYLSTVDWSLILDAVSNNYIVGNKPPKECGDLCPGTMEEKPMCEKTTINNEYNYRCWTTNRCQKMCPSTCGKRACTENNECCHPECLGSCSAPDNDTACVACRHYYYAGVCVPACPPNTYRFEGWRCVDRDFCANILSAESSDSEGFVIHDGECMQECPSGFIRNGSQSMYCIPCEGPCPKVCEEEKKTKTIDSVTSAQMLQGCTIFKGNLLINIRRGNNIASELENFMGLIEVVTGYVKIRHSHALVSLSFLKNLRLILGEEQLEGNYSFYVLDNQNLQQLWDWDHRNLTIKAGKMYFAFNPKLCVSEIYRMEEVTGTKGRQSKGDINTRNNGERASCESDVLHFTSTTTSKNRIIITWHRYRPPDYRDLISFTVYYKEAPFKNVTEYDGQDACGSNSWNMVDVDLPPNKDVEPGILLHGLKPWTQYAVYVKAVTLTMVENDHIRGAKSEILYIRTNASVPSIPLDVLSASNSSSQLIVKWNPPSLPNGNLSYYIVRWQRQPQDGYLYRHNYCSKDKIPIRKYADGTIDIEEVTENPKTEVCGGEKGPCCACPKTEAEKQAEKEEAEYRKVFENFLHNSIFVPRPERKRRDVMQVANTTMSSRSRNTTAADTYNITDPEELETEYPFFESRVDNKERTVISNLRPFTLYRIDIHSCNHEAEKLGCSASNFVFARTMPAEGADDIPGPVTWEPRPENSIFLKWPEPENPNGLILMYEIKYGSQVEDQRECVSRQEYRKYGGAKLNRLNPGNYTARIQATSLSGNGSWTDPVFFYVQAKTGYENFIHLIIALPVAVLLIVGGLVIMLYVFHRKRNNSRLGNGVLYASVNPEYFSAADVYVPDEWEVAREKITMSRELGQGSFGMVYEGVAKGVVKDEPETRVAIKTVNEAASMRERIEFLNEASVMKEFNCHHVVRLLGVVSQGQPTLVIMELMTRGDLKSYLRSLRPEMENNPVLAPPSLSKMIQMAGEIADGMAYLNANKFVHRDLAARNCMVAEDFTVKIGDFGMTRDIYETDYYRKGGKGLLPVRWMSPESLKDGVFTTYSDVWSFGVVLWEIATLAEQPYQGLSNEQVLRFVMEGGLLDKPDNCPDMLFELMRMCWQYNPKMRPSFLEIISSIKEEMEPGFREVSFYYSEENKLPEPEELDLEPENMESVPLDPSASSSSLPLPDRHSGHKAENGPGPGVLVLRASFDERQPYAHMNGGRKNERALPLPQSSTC

IC50 [nM]	SMILES
120	Nc1ncnc2c1c(-c1cccc(OCc3ccccc3)c1)cn2[C@H]1CC[C@@H](N2CCC2)CC1 [Example 10, cis-7-(4-Azetidin-1-yl-cyclohexyl)-5-(3-benzyloxy-phenyl)-7H-pyrrolo[2,3-d]pyrimidin-4-ylamine]
400	CCN(CC)[C@H]1CC[C@H](n2c(C)c(-c3cccc(OCc4ccccc4)c3)c3c(N)ncnc32)CC1 [Example 47, trans-5-(3-Benzyloxy-phenyl)-7-(4-diethylamino-cyclohexyl)-6-methyl-7H-Pyrrolo[2,3-d]pyrimidin-4-ylamine]
350	Nc1ncnc2c1c(-c1cccc(OCc3ccccc3)c1)cn2[C@H]1CC[C@H](N2CCC2)CC1 [Example 11, trans-7-(4-Azetidin-1-yl-cyclohexyl)-5-(3-benzyloxy-phenyl)-7H-pyrrolo[2,3-d]pyrimidin-4-ylamine]

From US20060058324A1, “4-Amino-5-phenyl-7-cyclohexyl-pyrrolo 2,3-d pyrimidine derivatives” (priority 2002, published 2006)
